Legend:
[1] = tested on: human tumor cell lines in culture; test: Human Tumor Disease Oriented in vitro screen, panel as a whole; format: cell-based; settings: relative to methotrexate, or enantiomer comparison
Protocol: Further, by analogy to methotrexate (rheumatrex) L-MDAM should be useful in the treatment of autoimmune diseases such as rheumatoid arthritis and inflammatory diseases such as asthma.
A 48 h continuous drug exposure protocol was used combined with an SR13
protein assay to estimate cell growth or viability.

[2] = tested on: transport of radiolabeled folinic acid to H35 hepatoma cells; test: Inhibition of transport of radiolabeled folinic acid to H35 hepatoma cells; format: cell-based; settings: H35 hepatoma cells; read-out: l50 value, inhibition of transport of radiolabeled folinic acid
Protocol: (§1) Independent, further evidences to the identity of L-MDAM as the biologically active enantiomer of the racemic mixture of D,L-MDAM (previously described as MDAM; Ref, U.S. Pat. No. 4,996,207) was obtained by the following data. […] The cytotoxicity of L-MDAM versus D,L-MDAM was also compared. […] The l50 value for growth inhibition (Gl50) was 39 nM for D,L-MDAM. […] Taken together, these unexpected and novel results establish that the biologically active compound present in the racemic mixture of MDAM is the L-enantiomer described in claim number 1.

L1210 leukemia = settings: animals bearing L1210 leukemia; cited from earlier work
[3] = target: T1, Recombinant Human Dihydrofolate Reductase (Homo sapiens, UniProt P00374); test: Inhibition of recombinant human dihydrofolate reductase, spectrophotometric enzyme assay; format: biochemical
T1 sequence (P00374 1-187): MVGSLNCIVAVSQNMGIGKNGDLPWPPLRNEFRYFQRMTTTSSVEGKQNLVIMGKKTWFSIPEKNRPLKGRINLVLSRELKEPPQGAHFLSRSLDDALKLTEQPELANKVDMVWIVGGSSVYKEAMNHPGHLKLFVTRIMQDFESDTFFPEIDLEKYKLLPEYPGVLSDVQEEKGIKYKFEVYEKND
Protocol: Enzyme assay was performed spectrophotometrically in a solution containin
50 μM dihydrofolate, 80 μM NADPH, 0.05 M Tris HCl. 0.01 M
2mercaptoethanol and 0.001 M EDTA at pH 7.4 at 30°. The reaction
Pure human recombinant enzyme was used.

[4] = animals; relative to MTX; cited from earlier work
P388 leukemia = settings: animals bearing P388 leukemia; cited from earlier work
H35 hepatoma cells = test: Growth inhibition of H35 hepatoma cells in culture; format: cell-based; settings: H35 hepatoma cells in culture, identical conditions; read-out: l50 value for growth inhibition (Gl50)
Protocol: as §1

[5] = tested on: Human HCT-8 Ileocecal Xenograft; test: Antitumor activity by I.V. push, daily × 5, against human HCT-8 ileocecal xenograft; settings: for CR: Complete Regression / MIR: Maximum inhibitory rate / PR: Partial Regression / TD: Tumor doubling time: i.v. push daily × 5
Source text: [M. G. Nair and Ann Abraham, U.S. Pat. No. 4,996,207 (1991); M. G. Nair, U.S. Pat. No. 5,073,554 (1991 )]. […] [Ann Abraham, M. G. Nair, et al. Advanced in Exp. Med. and Biol. 663-666 (1993)].
MIR: Maximum inhibitory rate. TD: Tumor doubling time.
CR: Complete Regression. PR Partial Regression.
(§2) MWL: Maximum Weight Loss.

[6] = tested on: Human HCT-8 Ileocecal Xenograft; test: Antitumor activity by continuous i.v. infusion (C.I.) × 5d against human HCT-8 ileocecal xenograft; format: in vivo, human (xenograft in nude mice); settings: C.I. × 5d
Source text: Antitumor Activity of MDAM by C.I. × 5d
against HUMAN HCT-8 Ileocecal Xenograft
MIR: Maximum inhibitory rate.
TD: Tumor doubling time.
CR: Complete Regression.
PR: Partial Regression.
as §2

[7] = single iv push daily for 5 days at the maximum tolerated dose, nude mice

C=C(CC(NC(=O)c1ccc(CCc2cnc3nc(N)nc(N)c3n2)cc1)C(=O)O)C(=O)O (racemic) [D,L-MDAM, γ-methylene-10-deazaaminopterin]
activity/potency in inhibiting growth of human tumor cell lines (in words) [1]: more potent activity relative to methotrexate in several tumor cell lines | activity/potency in inhibiting growth of human tumor cell lines (in words) ([1]; listed as MDAM): equivalent or greater potency than methotrexate | IC50 [2]: 5500 nM | in vivo antitumor activity relative to MTX (L1210 leukemia): superior in vivo antitumor activity relative to the polyglutamylatable MTX | IC50 ([3]; 50 μM dihydrofolate, 80 μM NADPH, pH 7.4, 30°): 44 nM | IC50 Compound/IC50 MTX ([3]; ratio to MTX): 2.58 | tolerability [4]: tolerated by animals at higher doses | in vivo antitumor activity relative to MTX (P388 leukemia): superior in vivo antitumor activity relative to the polyglutamylatable MTX | IC50 (H35 hepatoma cells): 39 nM | CR: Complete Regression ([5]; 30 mg/kg): 0% | MIR: Maximum inhibitory rate ([5]; 30 mg/kg): 58.8 ± 9.2% | PR: Partial Regression ([5]; 30 mg/kg): 0% | TD: Tumor doubling time ([5]; 30 mg/kg): 6.2 ± 0.9 days | CR: Complete Regression ([5]; 40 mg/kg): 25% | MIR: Maximum inhibitory rate ([5]; 40 mg/kg): 79.2 ± 7.5% | PR: Partial Regression ([5]; 40 mg/kg): 25% | TD: Tumor doubling time ([5]; 40 mg/kg): 7.1 ± 0.5 days | CR: Complete Regression ([5]; 50 mg/kg): 25% | MIR: Maximum inhibitory rate ([5]; 50 mg/kg): 79.2 ± 6.2% | PR: Partial Regression ([5]; 50 mg/kg): 50% | TD: Tumor doubling time ([5]; 50 mg/kg): 8.4 ± 0.4 days | antitumor response [5, 7]: 75% | complete tumor regression [5, 7]: 25% | CR: Complete Regression ([6]; 0.5 mg/kg): 0% | MIR: Maximum inhibitory rate ([6]; 0.5 mg/kg): 49.8 ± 8.2% | PR: Partial Regression ([6]; 0.5 mg/kg): 0% | TD: Tumor doubling time ([6]; 0.5 mg/kg): 5.3 ± 0.9 days | CR: Complete Regression ([6]; 1 mg/kg): 0% | MIR: Maximum inhibitory rate ([6]; 1 mg/kg): 56.4 ± 7.8% | PR: Partial Regression ([6]; 1 mg/kg): 0% | TD: Tumor doubling time ([6]; 1 mg/kg): 6.0 ± 0.7 days | CR: Complete Regression ([6]; 2 mg/kg(/day)): 38% | PR: Partial Regression ([6]; 2 mg/kg(/day)): 38% | MIR: Maximum inhibitory rate ([6]; 2 mg/kg): 81.7 ± 7.2% | TD: Tumor doubling time ([6]; 2 mg/kg): 12.4 ± 5.8 days

C=C(CC(NC(=O)c1ccc(C(CC)Cc2cnc3nc(N)nc(N)c3n2)cc1)C(=O)O)C(=O)O (centres unmarked) [MEDAM, γ-methylene-10-ethyl-10-deazaaminopterin]
in vivo antitumor activity relative to MTX (L1210 leukemia): superior in vivo antitumor activity relative to the polyglutamylatable MTX | tolerability [4]: tolerated by animals at higher doses | in vivo antitumor activity relative to MTX (P388 leukemia): superior in vivo antitumor activity relative to the polyglutamylatable MTX

Source: US5550128A, “Enantiomers of gamma methylene 10-deaza aminopterin and process for preparing the same” (priority 1994, dated 1996)
